According to patent publication US7713969B2, “Compositions and methods for treatment of cancer” (ArQule, Inc., priority 2005, dated 2010):

Legend:
c-Met = c-Met (Homo sapiens, UniProt P08581); test: c-Met phosphorylation, Western blot (Example 80); type: cell-based; parameters: whole cell extracts were prepared; endogenous in cells; host or cells: MDA-MB-231; details: MDA-MB-231 cells, serum-deprived 16 hours, 100 ng/ml HGF/SF 10 minutes
Method: MDA-MB-231 cells were serum-deprived overnight (16 hours) in the absence or in the presence of the indicated concentrations of the separate enantiomers (+)-trans-3-(5,6-dihydro-4H-pyrrolo[3,2,1-ij]quinolin-1-yl)-4(1H-indol-3-yl)pyrrolidine-2,5-dione and (−)-trans-3-(5,6-dihydro-4H-pyrrolo[3,2,1-ij]quinolin-1-yl)-4(1H-indol-3-yl)pyrrolidine-2,5-dione. Cells were treated with 100 ng/ml recombinant human Hepatocyte Growth Factor/Scatter Factor (HGF/SF) (R&D Systems #294-HG) for 10 minutes. Whole cell extracts were prepared in lysis buffer (20 mM Trwas-HC1 pH 7.5, 150 mM NaCl, 1 mM Na2EDTA, 1 mM EGTA, 1% Triton X-100, 2.5 mM sodium pyrophosphate, 1 mM beta-glycerophosphate, 1 mM Na3VO4, 1 μg/ml leupeptin, 1 mM phenylmethylsulfonyl fluoride) and sonicated. Protein concentration was measured by Bradford assay using the BioRad reagent (BioRad, Hercules, Calif.), according to the manufacturer's directions. Samples (50 μg of protein) were resolved by 8% SDS-PAGE under reducing conditions, and transferred onto a PVDF membrane (BioRad). […] Proteins were detected by incubation overnight at 4° C. in TBS-T with 5% milk and either a polyclonal antibody against phosphorylated c-Met (#3121), phosphorylated Erk1/2 (#9101), total Erk1/2 protein (#9102) (Cell Signaling Technology); or a monoclonal antibody against […] (A-5441) (Sigma), which was used as a control for total protein loading. […]

[1] = test system: Recombinant Protein Kinase C; test: Protein Kinase C kinase reaction, Histone H1, autoradiography (Example 79); type: biochemical; details: 0.05, 0.5, or 10 μM, 15 minutes at room temperature
Method: Recombinant Protein Kinase C (Calbiochem) (100 ng) was incubated with (±)-cis-3-(5,6-dihydro-4H-pyrrolo[3,2,1-ij]quinolin-1yl)-4(1H-indol-3-yl)pyrrolidine-2,5-dione or (±)-trans-3-(5,6-dihydro-4H-pyrrolo[3,2,1-ij]quinolin-1-yl)-4(1H-indol-3-yl)pyrrolidine-2,5-dione at 0.05, 0.5, or 10 μM for 15 minutes at room temperature. Subsequently, a radioactive labeling mix in kinase buffer (20 mM Tris-HCl pH 7.5, 10 mM MgCl2) containing 20 μM ATP, 0.2 μCi/μl γ^32P-ATP, 0.2 μg/μl Histone H1 (Upstate) was added to each sample. The kinase reaction was carried out for 5 minutes at room temperature. Reaction products were analyzed by 12% SDS-PAGE and autoradiography.

[2] = test system: MDA-MB-231 human breast cancer xenograft; test: MDA-MB-231 xenograft, intraperitoneal 80 mg/kg (Example 82); type: in vivo, mice; details: 80 mg/kg intraperitoneally, 5 days on/2 off, four cycles, DMA/PEG 400
Method: Athymic female nude mice (CRL:NU/NU-nuBR) were injected subcutaneously in the flank with MDA-MB-231 human breast cancer cells (8×10^6 cells/mouse). Prior to injection, MDA-MB-231 cells were cultured in DMEM (Invitrogen #11965-092) supplemented with 10% (v/v) heat inactivated fetal bovine serum (FBS), 1% Hepes buffer solution (Invitrogen #15630-080) and 1% Penicillin/Streptomycin (Invitrogen #15140-122) at 37° C. in 5% CO2. Tumors were allowed to grow to approximately 50 mm^3 in size. Animals were randomized into three groups of eight animals per group. At day four post injection, mice with established tumors were treated intraperitoneally with (±)-Cis-3-(5,6-dihydro-4H-pyrrolo[3,2,1-ij]quinolin-1yl)-4(1H-indol-3-yl)pyrrolidine-2,5-dione (80 mg/kg), (±)-Trans-3-(5,6-dihydro-4H-pyrrolo[3,2,1-ij]quinolin-1-yl)-4(1H-indol-3-yl)pyrrolidine-2,5-dione (80 mg/kg) administered in DMA/PEG 400 (1:4 v/v) as the vehicle at 50 mg/ml, or vehicle control intraperitoneally. […] Tumor size was evaluated periodically during the study. For each subject, tumor volume was calculated using the formula (L×W^2)/2 where L and W were the length and width of the tumor, respectively. The arithmetic mean tumor volume was calculated for each treatment group+/−standard error of the mean (SEM). […]

[3] = test system: MDA-MB-231 cells or Paca-2 cells; test: Cell survival in six-well plates, Wright-Giemsa stain (Example 77); type: cell-based; details: Homo sapiens; 0.1-2 μM, cultures observed 10-15 days; cell line of the IC50 not stated
Method: Exponentially growing MDA-MB-231 cells or Paca-2 cells were seeded at 1,000 cells per well in six-well plates and allowed to attach for 24 hours. MDA-MB-231 and Paca-2 cells were cultured in DMEM supplemented with 10% (v/v) fetal calf serum (FCS) and 5 ml Penicillin/Streptomycin at 37° C. in 5% CO2. MDA-MB-231 and Paca-2 were established estrogen receptor negative human breast cancer and pancreatic carcinoma cell lines, respectively. (±)-cis-3-(5,6-dihydro-4H-pyrrolo[3,2,1-ij]quinolin-1yl)-4(1H-indol-3-yl)pyrrolidine-2,5-dione or (±)-trans-3-(5,6-dihydro-4H-pyrrolo[3,2,1-ij]quinolin-1-yl)-4(1H-indol-3-yl)pyrrolidine-2,5-dione were each dissolved at a concentration of 10 mM in DMSO, and separately added to cells at a concentration of 0.1, 0.25, 0.5, 1 or 2 μM. Control plates received DMSO alone, at the same percentage of total culture volume as that administered in conjunction with the highest concentration of drug. Cell cultures were observed daily for 10-15 days, then fixed and stained with modified Wright-Giemsa stain (Sigma). Treatment with (±)-cis-3-(5,6-dihydro-4H-pyrrolo [3,2,1-ij]quinolin-1yl)-4(1H-indol-3-yl)pyrrolidine-2,5-dione or (±)-trans-3-(5,6-dihydro-4H-pyrrolo[3,2,1-ij]quinolin-1-yl)-4(1H-indol-3-yl)pyrrolidine-2,5-dione results in cell death of MDA-MB-231 cells or Paca-2 cells. See, e.g., FIG. 2.

Sequence of c-Met (P08581 25-1390): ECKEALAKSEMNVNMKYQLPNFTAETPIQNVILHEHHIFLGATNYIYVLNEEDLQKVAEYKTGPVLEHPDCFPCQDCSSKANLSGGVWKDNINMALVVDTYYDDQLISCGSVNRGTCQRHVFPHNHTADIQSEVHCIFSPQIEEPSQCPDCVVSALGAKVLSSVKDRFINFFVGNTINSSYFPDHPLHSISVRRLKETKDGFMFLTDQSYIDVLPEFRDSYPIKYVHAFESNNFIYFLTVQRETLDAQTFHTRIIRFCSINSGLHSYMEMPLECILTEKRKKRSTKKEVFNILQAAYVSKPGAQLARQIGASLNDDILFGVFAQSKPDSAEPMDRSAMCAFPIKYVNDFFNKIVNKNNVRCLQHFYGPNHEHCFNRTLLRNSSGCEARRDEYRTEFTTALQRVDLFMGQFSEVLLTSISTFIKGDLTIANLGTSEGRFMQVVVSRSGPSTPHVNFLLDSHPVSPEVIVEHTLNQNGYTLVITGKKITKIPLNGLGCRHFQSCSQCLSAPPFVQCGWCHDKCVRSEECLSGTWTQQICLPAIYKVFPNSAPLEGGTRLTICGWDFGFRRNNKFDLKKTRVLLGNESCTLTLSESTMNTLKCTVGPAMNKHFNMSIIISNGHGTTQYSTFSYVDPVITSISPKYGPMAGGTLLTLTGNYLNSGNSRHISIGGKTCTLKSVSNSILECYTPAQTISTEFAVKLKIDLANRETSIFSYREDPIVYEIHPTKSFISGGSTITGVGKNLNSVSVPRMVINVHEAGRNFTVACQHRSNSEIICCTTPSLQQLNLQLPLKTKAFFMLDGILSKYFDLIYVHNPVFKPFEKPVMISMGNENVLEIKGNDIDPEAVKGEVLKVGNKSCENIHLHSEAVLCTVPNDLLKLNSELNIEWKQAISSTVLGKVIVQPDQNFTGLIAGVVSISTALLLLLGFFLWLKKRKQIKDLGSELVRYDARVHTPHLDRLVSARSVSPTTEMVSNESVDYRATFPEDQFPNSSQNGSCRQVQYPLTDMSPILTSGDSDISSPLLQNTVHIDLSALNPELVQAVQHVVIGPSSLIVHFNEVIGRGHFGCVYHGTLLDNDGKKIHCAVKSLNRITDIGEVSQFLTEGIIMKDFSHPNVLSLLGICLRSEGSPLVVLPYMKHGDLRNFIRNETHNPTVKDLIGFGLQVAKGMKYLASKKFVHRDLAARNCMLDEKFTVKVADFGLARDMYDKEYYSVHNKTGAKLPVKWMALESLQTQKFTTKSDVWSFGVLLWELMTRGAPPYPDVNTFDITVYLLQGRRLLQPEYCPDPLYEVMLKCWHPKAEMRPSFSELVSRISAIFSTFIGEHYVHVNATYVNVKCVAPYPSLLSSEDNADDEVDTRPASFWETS

| Structure (SMILES) | concentration that inhibits basal and HGF-induced autophosphorylation of c-Met (c-Met) | Protein Kinase C kinase activity in comparison to carrier alone [1] | reduction of mean tumor volume compared to vehicle treated control [2] [%] | IC50 [3] [µM] |
| --- | --- | --- | --- | --- |
| O=C1NC(=O)C(c2cn3c4c(cccc24)CCC3)C1c1c[nH]c2ccccc12 (single isomer, unassigned; (-)) | at least 500 nM | – | – | – |
| O=C1NC(=O)[C@@H](c2cn3c4c(cccc24)CCC3)[C@@H]1c1c[nH]c2ccccc12 (racemic) [(±)-Trans-3-(5,6-dihydro-4H-pyrrolo[3,2,1-ij]quinolin-1-yl)-4(1H-indol-3-yl)pyrrolidine-2,5-dione] | – | did not reduce kinase activity | 69.4 | 0.5 |
